Paper PMC7072329, “Discovery of Kynurenines Containing Oligopeptides as Potent Opioid Receptor Agonists” (Biomolecules, 2020)
Where a SMILES comes first, the peptide text is derived from it. [ ]: non-standard residue; d: D form. Kyn = Nc1ccccc1C(=O)C[C@H](N)C(=O)O

System: G-protein
Assay: functional [35S]GTPγS binding, guinea pig brain membrane homogenates
Assay type: biochemical
Settings: ligand alone
Experimental: Rats and guinea pigs were decapitated, and their brains were quickly removed. The brains were used for membrane preparation following the procedure reported by Benyhe for binding and [^35S]GTPγS binding experiments, in agreement with the protocol of Zádor et al..
Homogenization of brains was performed in 30 volumes (v/w) of ice-cold 50 mM Tris-HCl pH 7.4 buffer with a Teflon-glass Braun homogenizer at 1500 rpm. The centrifuge was settled at 18,000 rpm for 20 min at 4 °C, the resulting supernatant discarded, and the pellet taken up in the original volume of Tris-HCl buffer. Incubation of homogenate at 37 °C for 30 min was performed in a shaking water-bath. Five volumes of 50 mM Tris-HCl pH 7.4 buffer were used to suspend the final pellet at −80 °C. For the [^35S]GTPγS binding experiments, the brains were homogenized with a Dounce in 5 volumes (v/w) of ice-cold TEM (Tris-HCl, EGTA, MgCl2) at −80 °C. The protein content of the membrane preparation was determined by the method of Bradford, BSA being used as a standard.
The functional [^35S]GTPγS binding experiments were performed as previously described. Briefly the membrane homogenates were incubated at 30 °C for 60 min in Tris-EGTA buffer (pH 7.4) composed of 50 mM Tris-HCl, 1 mM EGTA, 3 mM MgCl2, 100 mM NaCl, containing 20 MBq/0.05 cm^3 [^35S]GTPγS (0.05 nM) and increasing concentrations (10^−10 to 10^−5 M) of ligands. The experiments were performed in the presence of excess GDP (30 μM) in a final volume of 1 mL. Total binding was measured in the absence of test compounds, non-specific binding was determined in the presence of 10 μM unlabeled GTPγS. The reaction was terminated by rapid filtration under vacuum and washed three times with 5 mL ice-cold 50 mM Tris-HCl (pH 7.4) buffer through Whatman GF/B glass fibers. The radioactivity of the filters was detected in an UltimaGold^TM MV aqueous scintillation cocktail with a Packard Tricarb 2300TR liquid scintillation counter.
Experimental data are presented as means ± S.E.M. Sigmoid dose-response curves were fitted with GraphPad Prism 5.0 (GraphPad Prism Software Inc., San Diego, CA, USA). An unpaired t-test with two-tailed p value was performed to determine the significance level. In the competition binding assays, the ‘One site competition’ fitting was used to establish the equilibrium binding affinity (Ki value).
Figure S3. The effect of novel oligopeptides on G-protein activity in [35S]GTPγS binding assays in the absence or presence of the selective MOR antagonist cyprodime (Cyp) and the selective DOR antagonist naltrindole (NTI) in rat brain membrane homogenates (Figure A) and the selective KOR antagonist norbinaltorphine (nor-BNI) in guinea pig brain membrane homogenates (Figure B). […]

Structure (SMILES): C[C@@H](NC(=O)[C@@H](N)Cc1ccc(O)cc1)C(=O)NCC(=O)N[C@@H](Cc1ccccc1)C(=O)N[C@@H](CC(=O)c1ccccc1N)C(N)=O [Peptide K6] (H-Y[dA]GF[Kyn]-NH2)
- Emax + S.E.M., Ligand: 139.8 ± 2.3%
